# According to patent US12138346B2, “Physiologically active substance carrier” (LEMONEX INC., priority 2017, dated 2024):
# Key:
# Assay type in all cases: physicochemical
# [1] = Release of irinotecan from porous silica particles in human plasma; conditions: loaded on negatively charged particles of Example 2-(3)-1), 37° C., 200 rpm
# Experimental: 1 mg of porous silica particles loaded with irinotecan (0.2 mg) was dispersed in 1 mL of human plasma. This solution was maintained in a dynamic condition for horizontal agitation at 37° C. and 200 rpm. The irinotecan-loaded porous silica solution was settled by a centrifugal separator at each time point, an absorbance of the supernatant (λab=255 or 278 nm) was measured to determine an amount of released irinotecan, and results thereof are shown in FIG. 14.
# [2] = Release of p53 peptides from porous silica particles; conditions: loaded on particles of Example 1-(11)-5)(i), 37° C., 20 rpm
# Experimental: 5 mg of particles loaded with p53 peptides was put in 5 mL of 1×PBS containing 10% FBS or 5 mL of 1×PBS, and held in a dynamic environment while rotating at 37° C. and 20 rpm. The solution was centrifuged at 8500 rpm at each time point, and a fluorescent intensity of 5(6)-carboxy fluorescein (FAM) as a fluorescent label coupled to p53 peptide in the supernatant was measured ([…]: 480 nm, Emission: 520 nm).
# [3] = Release of doxorubicin from porous silica particles; conditions: loaded on porous silica particles of Example 1-(1); PBS, 37° C., 200 rpm
# Experimental: 0.5 mg of porous silica particles loaded with doxorubicin (0.1 mg) was dispersed in PBS. This solution was maintained in a dynamic condition for horizontal agitation at 37° C. and 200 rpm. The doxorubicin-loaded porous silica solution was settled by a centrifugal separator at each time point, an absorbance of the supernatant (λab=480 nm) was measured to determine an amount of released doxorubicin, and results thereof are shown in FIG. 13.
# [4] = Release of Cy5-siRNA from porous silica particles; conditions: Cy5-siRNA loaded on particles of Example 2-(1)-2)(ii); SBF (pH 7.4, 37° C.), 60 rpm
# Experimental: 10 μl of the porous silica particles loaded with Cy5-siRNA was re-suspended in SBF (pH 7.4, 37° C.) and then put in a permeable membrane having a pore diameter of 20 kDa (tube in FIG. 18).
# Thereafter, the permeable tube was dipped in 1.5 ml of SBF.
# Before 24 hours, the released solvent was recovered at a time passing 0.5, 1, 2, 4, 8, 12 and 24 hours. Thereafter, 0.5 ml of released solvent was recovered at an interval of 24 hours for fluorescence measurement, followed by addition of SBF in equal amount.
# Fluorescent intensity of Cy5-siRNA was measured at a wavelength of 670 nm (λex=647 nm) to determine a release degree of siRNA, and results thereof are shown in FIG. 19.
# [5] = Release of sorafenib from porous silica particles; conditions: loaded on particles of Example 1-(11)-5)(i) (hydrophobic substituent); 1×PBS, 37° C., 200 rpm
# Experimental: 1 mg of porous silica particles loaded with sorafenib (0.1 mg) was dispersed in 10 mL of 1×PBS mL. This solution was maintained in a dynamic condition for horizontal agitation at 37° C. and 200 rpm. The sorafenib-loaded porous silica solution was settled by a centrifugal separator at each time point, an absorbance of the supernatant (λab=270 nm) was measured to determine an amount of released sorafenib, and results thereof are shown in FIG. 15.
# [6] = Release of RNase A from porous silica particles; conditions: over 250 hours or more; SBF (pH 7.4) or PBS (pH 7.4), 37° C.; loaded on particles of Example 1-(9)
# Experimental: 100 μg of the porous silica particles loaded with RNase A having fluorescence labeled therewith was re-suspended in 200 μl of SBF (pH 7.4) or PBS (pH 7.4).
# Release of RNase A was performed at 37° C. while horizontally stirring at 60 rpm.
# At a time point of 6, 12, 24, 48, 96, 144 and 240 hours, 200 μl of released solvent was recovered for fluorescence measurement, followed by addition of SBF or PBS in equal amount.
molecule,measurement,setting,value
CCc1c2c(nc3ccc(OC(=O)N4CCC(N5CCCCC5)CC4)cc13)-c1cc3c(c(=O)n1C2)COC(=O)[C@]3(O)CC [irinotecan],irinotecan released,[1]; after 5.5 hours,about 50%
same,time over which irinotecan was continuously released,[1],≥ 120 h
"Z-Gly-Gly-Qln-Ser-Qln-Qln-Thr-Phe-Y-Asn-Leu-Trp-Arg-Leu-Leu-X-Qln-Asn-NH2 (GGXSXXTFXNLWRLLXXN; not fully specified; FAM label; triazole staple; C-terminal amide; p53 peptide; SITE 3 1 - Xaa is Qln; 2 - Xaa is Qln; SITE 9 3 - Xaa is a non-natural amino acid introduced with an alkyne functional group wherein 4-pentynoic acid is introduced at a side chain of D-Lys; SITE 16 4 - Xaa is a non-natural amino acid introduced with an azide functional group and denotes 2-amino-5-azido-pentanoic acid; SITE 17 5 - Xaa is Qln) [FAM-labelled triazole-stapled peptide mimicking p53, antagonist of hMDM2]",release of p53 peptide (in words),[2]; 1×PBS containing 10% FBS,may be released outside the particle
same,release of p53 peptide (in words),[2]; 1×PBS,not released
COc1cccc2c1C(=O)c1c(O)c3c(c(O)c1C2=O)C[C@@](O)(C(=O)CO)C[C@@H]3O[C@H]1C[C@H](N)[C@H](O)[C@H](C)O1 [doxorubicin],release of doxorubicin (in words),[3],relatively quickly released
same,time over which doxorubicin was continuously released,[3],≥ 70 h
"siRNA: 21 base pair duplex siRNA that targets green fluorescent protein (GFP), SEQ ID NO: 1 and 2; loaded on particles of Example 2-(1)-2)(ii) (sense GGCUACGUCCAGGAGCGCACC; antisense UGCGCUCCUGGACGUAGCCUU; Cy5 label, chemistry not fully specified)",time over which 50% of siRNA was released,[4],about 48 hours
CNC(=O)c1cc(Oc2ccc(NC(=O)Nc3ccc(Cl)c(C(F)(F)F)c3)cc2)ccn1 [sorafenib],release of sorafenib (in words),[5],very slowly released
"RNase A: RNase A (Sigma Aldrich, R6513), fluorescence labeled, loaded on particles of Example 1-(9) (protein, UniProt P61823 27-150, looked up, fluorescence labeled) Ribonuclease pancreatic: KETAAAKFERQHMDSSTSAASSSNYCNQMMKSRNLTKDRCKPVNTFVHESLADVQAVCSQKNVACKNGQTNCYQSYSTMSITDCRETGSSKYPNCAYKTTQANKHIIVACEGNPYVPVHFDASV",RNase A released,[6],~100%
